# How the values were obtained:
# MDA-MB-231 tumors = test: In vivo testing, MDA-MB-231-iRFP xenograft: imaging, image-guided tumor removal, relative biodistribution; design: species or system female nude mice; conditions: I.V. injection of 10 nmol ICG (free or fHNP), 24 hours
# Procedure: Twelve to fourteen week old female nude mice (Jackson Labs) were injected subcutaneously with 2×10^6) MDA-MB-231 cells in 50/50 media/matrigel. MDA-MB-231 cells were transfected with NIR fluorescent protein (iRFP). When the tumors reached 500-1000 mm^3, 10 nmol ICG or fHNP (10 wt % PBA was the hydrophobic ligand in this case) was injected into a tail vein. After 24 hours the mice were euthanized and imaged whole using a LI-COR Pearl Impulse system, which has a “700 nm” channel that can detect iRFP-labeled cell and an “800 nm” channel that can detect ICG or Cy7.5. Mice then underwent image-guided tumor removal with the fluorescence image-guided surgical system method. First, skin was removed to expose the breast tumor xenograft. […] Mice were then re-imaged on the LI-COR system to compare area identified as tumor by the fluorescence image-guided surgical system with iRFP labeled tumors. This was followed by necropsy, further image acquisition for the overall estimation of relative ICG biodistribution, and preparation of tissues for histology.
# ectopic 4T1 breast tumor = test: ICG detection in tumor with the fluorescence image-guided surgical system; format: in vivo, mouse; conditions: 0.357 mg/kg ICG via tail vein, 24 hours, laser excitation directed at the tumor
# Procedure: In this experiment, 0.357 mg/kg ICG was systemically administered via a tail vein. After 24 hours, the mouse was euthanized and tumor fluorescence enhancement was assessed by using the fluorescence image-guided surgical system method. When the laser excitation source of fluorescence image-guided surgical system method is directed off the tumor (FIG. 9A,B), no fluorescence enhancement of the tumor is seen. […] This example uses a breast tumor model.
structure (smiles),measurement,setting,value
"CC1(C)C(/C=C/C=C/C=C/C=C2\N(CCCCS(=O)(=O)O)c3ccc4ccccc4c3C2(C)C)=[N+](CCCCS(=O)(=O)[O-])c2ccc3ccccc3c21 [ICG, Indocyanine green]",Tumor signal enhancement,MDA-MB-231 tumors,tumor signal enhancement
same,Tumor fluorescence enhancement,ectopic 4T1 breast tumor,strong fluorescence signal

# — patent publication US11617804B2, “Hyaluronic acid-based nanoparticles as biosensors for imaging-guided surgery and drug delivery vehicles and methods associated therewith” (Wake Forest University, priority 2014, dated 2023)
